Consider seven molecules from patent US11980188B2, “Spiro cyclohexanedione derivates as herbicides” (SYNGENTA PARTICIPATIONS AG, priority 2018, dated 2024).

Assay in all cases: Glasshouse herbicide test, pre- and post-emergence, percentage damage
Holding throughout (format): in vivo

The test system of one assay is Setaria faberi (SETFA). As to conditions: 250 g/h, evaluated after 13 days, percentage damage on five point scale; for SETFA POST: post-emergence; for SETFA PRE: pre-emergence. Here is the method:
(§1) Seeds of a variety of test species are sown in standard soil in pots (Lolium perenne (LOLPE), Setaria faberi (SETFA), Alopecurus myosuroides (ALOMY), Echinochloa crus-galli (ECHCG), Avena fatua (AVEFA)). After cultivation for one day (pre-emergence) or after 8 days cultivation (post-emergence) under controlled conditions in a glasshouse (at 24/16° C., day/night; 14 hours light; 65% humidity), the plants are sprayed with an aqueous spray solution derived from the formulation of the technical active ingredient in acetone/water (50:50) solution containing 0.5% Tween 20 (polyoxyethelyene sorbitan monolaurate, CAS RN 9005-64-5). Compounds are applied at […]. The test plants are then grown in a glasshouse under controlled conditions in a glasshouse (at 24/16° C., day/night; 14 hours light; 65% humidity) and watered twice daily. After 13 days for pre and post-emergence, the test is evaluated for the percentage damage caused to the plant. The biological activities are shown in the following table on a five point scale (5=80-100%; 4=60-79%; 3=40-59%; 2=20-39%; 1=0-19%).

The test system of assay [1] is Echinochloa crus-galli (ECHCG). As to conditions: 250 g/h, evaluated after 13 days, percentage damage on five point scale; for ECHCG POST: post-emergence; for ECHCG PRE: pre-emergence. As to the method:
as §1

For the next assay, the system named is Lolium perenne (LOLPE). As to conditions: 250 g/h, evaluated after 13 days, percentage damage on five point scale; for LOLPE POST: post-emergence; for LOLPE PRE: pre-emergence. As to the method: as §1
A further assay concerns Avena fatua (AVEFA). The note with it: 250 g/h, evaluated after 13 days, percentage damage on five point scale; for AVEFA POST: post-emergence; for AVEFA PRE: pre-emergence. As to the method:
as §1

As for `Cc1cc(-c2ccc(F)cc2)cc(C)c1C1C(=O)CC2(CCN(C(=O)NC(=O)c3ccccn3)CC2)CC1=O` [Compound A62], in the assay on Setaria faberi (SETFA), the “SETFA POST” value is 5 (5=80-100%) and the “SETFA PRE” value is listed as 3 (3=40-59%). In assay [1], the “ECHCG POST” value is 3 (3=40-59%) and the “ECHCG PRE” value is recorded as 1 (1=0-19%). Also, in the assay with Lolium perenne (LOLPE), the “LOLPE POST” value was 2 (2=20-39%) and the “LOLPE PRE” value is 2 (2=20-39%). In the assay on Avena fatua (AVEFA), the “AVEFA POST” value is 5 (5=80-100%) and the “AVEFA PRE” value is given as 2 (2=20-39%).
Consider `Cc1cc(-c2ccc(F)cc2)cc(C)c1C1C(=O)CC2(CCN(C(=O)NC(C)(C)C)CC2)CC1=O` [Compound A57], for which, in the assay on Setaria faberi (SETFA), the “SETFA POST” value is given as 5 (5=80-100%) and the “SETFA PRE” value is given as 5 (5=80-100%). In assay [1], the “ECHCG POST” value was 5 (5=80-100%) and the “ECHCG PRE” value is 5 (5=80-100%). In the assay with Lolium perenne (LOLPE), the “LOLPE POST” value is given as 5 (5=80-100%) and the “LOLPE PRE” value is listed as 5 (5=80-100%). In the assay with Avena fatua (AVEFA), the “AVEFA POST” value is recorded as 4 (4=60-79%) and the “AVEFA PRE” value is reported as 1 (1=0-19%).
Turning to `COc1cc(-c2ccc(F)cc2)cc(C)c1C1C(=O)CC2(CCN(C(=O)CC#N)CC2)CC1=O` [Compound A74], in the assay on Setaria faberi (SETFA), the “SETFA POST” value is 5 (5=80-100%) and the “SETFA PRE” value is listed as 5 (5=80-100%). For the same molecule, in assay [1], the “ECHCG POST” value was 5 (5=80-100%) and the “ECHCG PRE” value was 5 (5=80-100%). Besides, in the assay with Lolium perenne (LOLPE), the “LOLPE POST” value is listed as 5 (5=80-100%) and the “LOLPE PRE” value is on record as 5 (5=80-100%). Besides, in the assay with Avena fatua (AVEFA), the “AVEFA POST” value is 5 (5=80-100%) and the “AVEFA PRE” value is 5 (5=80-100%).
Take `COc1cc(-c2ccc(F)cc2)cc(C)c1C1C(=O)CC2(CCN(C(=O)C(F)F)CC2)CC1=O` [Compound A71]: in the assay on Setaria faberi (SETFA), the “SETFA POST” value is on record as 5 (5=80-100%) and the “SETFA PRE” value is given as 5 (5=80-100%). Also, in assay [1], the “ECHCG POST” value was 5 (5=80-100%) and the “ECHCG PRE” value is 5 (5=80-100%). Moreover, in the assay on Lolium perenne (LOLPE), the “LOLPE POST” value is 5 (5=80-100%) and the “LOLPE PRE” value is listed as 5 (5=80-100%). Further, in the assay with Avena fatua (AVEFA), the “AVEFA POST” value is given as 5 (5=80-100%) and the “AVEFA PRE” value is given as 5 (5=80-100%).
In the case of `COc1cc(-c2ccc(F)cc2)cc(C)c1C1C(=O)CC2(CCN(C(=O)c3ccccn3)CC2)CC1=O` [Compound A66], in the assay with Setaria faberi (SETFA), the “SETFA POST” value is 5 (5=80-100%) and the “SETFA PRE” value is on record as 5 (5=80-100%). In assay [1], the “ECHCG POST” value was 5 (5=80-100%) and the “ECHCG PRE” value is reported as 5 (5=80-100%). In the assay with Lolium perenne (LOLPE), the “LOLPE POST” value is 5 (5=80-100%) and the “LOLPE PRE” value is on record as 5 (5=80-100%). Further, in the assay with Avena fatua (AVEFA), the “AVEFA POST” value is 5 (5=80-100%) and the “AVEFA PRE” value was 5 (5=80-100%).
Regarding `CCS(=O)(=O)N1CCC2(CC1)CC(=O)C(c1c(C)cc(-c3ccc(F)cc3)cc1OC)C(=O)C2` [Compound A64], in the assay with Setaria faberi (SETFA), the “SETFA POST” value is 5 (5=80-100%) and the “SETFA PRE” value is 5 (5=80-100%). Moreover, in assay [1], the “ECHCG POST” value is 5 (5=80-100%) and the “ECHCG PRE” value is listed as 5 (5=80-100%). Further, in the assay with Lolium perenne (LOLPE), the “LOLPE POST” value is given as 5 (5=80-100%) and the “LOLPE PRE” value is 5 (5=80-100%). For the same molecule, in the assay on Avena fatua (AVEFA), the “AVEFA POST” value is 5 (5=80-100%) and the “AVEFA PRE” value is on record as 5 (5=80-100%).
`COCC(=O)N1CCC2(CC1)CC(=O)C(c1c(C)cc(-c3ccc(F)cc3)cc1OC)C(=O)C2` [Compound A67]: in the assay on Setaria faberi (SETFA), the “SETFA POST” value is listed as 5 (5=80-100%) and the “SETFA PRE” value is recorded as 5 (5=80-100%). Moreover, in assay [1], the “ECHCG POST” value was 5 (5=80-100%) and the “ECHCG PRE” value is listed as 5 (5=80-100%). Further, in the assay on Lolium perenne (LOLPE), the “LOLPE POST” value was 5 (5=80-100%) and the “LOLPE PRE” value is reported as 5 (5=80-100%). In addition, in the assay with Avena fatua (AVEFA), the “AVEFA POST” value is 5 (5=80-100%) and the “AVEFA PRE” value is 5 (5=80-100%).
